{
  "source": "ChEMBL document CHEMBL1130656",
  "about": "“Thyrotropin releasing hormone analogs: a building block approach to the construction of tetracyclic peptidomimetics” (Bioorg Med Chem Lett, 1998)",
  "key": {"[1]": {"target": "T1, Thyrotropin-releasing hormone receptor (Mus musculus, UniProt P21761)", "T1 sequence (P21761 whole entry)": "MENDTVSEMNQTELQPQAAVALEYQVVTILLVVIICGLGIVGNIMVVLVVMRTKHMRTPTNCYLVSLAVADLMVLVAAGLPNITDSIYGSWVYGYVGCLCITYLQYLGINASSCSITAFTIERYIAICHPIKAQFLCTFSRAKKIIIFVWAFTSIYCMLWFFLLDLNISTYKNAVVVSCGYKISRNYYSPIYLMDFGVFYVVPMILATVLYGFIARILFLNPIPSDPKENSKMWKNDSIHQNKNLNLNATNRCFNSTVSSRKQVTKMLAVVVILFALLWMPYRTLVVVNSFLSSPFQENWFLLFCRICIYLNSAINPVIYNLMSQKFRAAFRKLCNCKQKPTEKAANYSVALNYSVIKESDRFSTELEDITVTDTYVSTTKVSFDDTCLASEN", "experiment": "Ability to bind thyroliberin endocrine receptor (TRH-R) using AtT-20 mouse pituitary tumor cells."}, "[2]": {"target": "T1, Thyrotropin-releasing hormone receptor", "experiment": "Ability to activate thyroliberin endocrine receptor (TRH-R) using AtT-20 mouse pituitary tumor cells prelabelled with myo-[3H] inositol"}},
  "note": "Non-standard residues stand in square brackets, D forms with d. Residues, ends and D or L forms follow the SMILES beside them. Cha = N[C@@H](CC1CCCCC1)C(=O)O; pGlu = O=C1CC[C@@H](C(=O)O)N1",
  "data": [
    {"molecule": "NC(=O)[C@@H]1CCC2CC(C3CCCCC3)=C(N3CC[C@]4(CCC(=O)N4)C3=O)C(=O)N21", "note": "(single isomer, unassigned; 2a)", "values": [
      {"measurement": "Ki", "setting": "[1]", "result": 1.5, "unit": "µM"},
      {"measurement": "EC50", "setting": "[2]", "result": 1800, "unit": "nM"}
    ]},
    {"molecule": "NC(=O)[C@@H]1CCCN1C(=O)[C@H](CC1CCCCC1)NC(=O)[C@@H]1CCC(=O)N1", "note": "([pGlu]-[Cha]-Pro-NH2)", "values": [
      {"measurement": "Ki", "setting": "[1]", "result": 6.5, "unit": "µM"},
      {"measurement": "EC50", "setting": "[2]", "result": 430, "unit": "nM"}
    ]},
    {"molecule": "NC(=O)[C@@H]1CCCN1C(=O)[C@H](Cc1cnc[nH]1)NC(=O)[C@@H]1CCC(=O)N1", "note": "[PROTIRELIN]", "values": [
      {"measurement": "Ki", "setting": "[1]", "result": 0.023, "unit": "µM"},
      {"measurement": "EC50", "setting": "[2]", "result": 0.49, "unit": "nM"}
    ]},
    {"molecule": "NC(=O)[C@@H]1CCC2CC(C3CCCCC3)=C(N3CC[C@]4(CCC(=O)N4)C3=O)C(=O)N21", "note": "(single isomer, unassigned; 2b)", "values": [
      {"measurement": "Ki", "setting": "[1]", "result": 36, "unit": "µM"},
      {"measurement": "EC50", "setting": "[2]", "result": 18000, "unit": "nM"}
    ]}
  ]
}
